Data on 19 molecules can be found in patent publication US20230019491A1, “PYRIMIDINE TBK/IKKe INHIBITOR COMPOUNDS AND USES THEREOF” (Merck Patent GmbH, priority 2017, published 2023).

pIC50: −log10 of the molar value. Where a name gives a salt, the structure may show the parent alone. Some results are limits rather than exact numbers.

The target of one assay is T1, TBK1 (Homo sapiens, UniProt Q9UHD2).
T1 sequence (Q9UHD2 1-729): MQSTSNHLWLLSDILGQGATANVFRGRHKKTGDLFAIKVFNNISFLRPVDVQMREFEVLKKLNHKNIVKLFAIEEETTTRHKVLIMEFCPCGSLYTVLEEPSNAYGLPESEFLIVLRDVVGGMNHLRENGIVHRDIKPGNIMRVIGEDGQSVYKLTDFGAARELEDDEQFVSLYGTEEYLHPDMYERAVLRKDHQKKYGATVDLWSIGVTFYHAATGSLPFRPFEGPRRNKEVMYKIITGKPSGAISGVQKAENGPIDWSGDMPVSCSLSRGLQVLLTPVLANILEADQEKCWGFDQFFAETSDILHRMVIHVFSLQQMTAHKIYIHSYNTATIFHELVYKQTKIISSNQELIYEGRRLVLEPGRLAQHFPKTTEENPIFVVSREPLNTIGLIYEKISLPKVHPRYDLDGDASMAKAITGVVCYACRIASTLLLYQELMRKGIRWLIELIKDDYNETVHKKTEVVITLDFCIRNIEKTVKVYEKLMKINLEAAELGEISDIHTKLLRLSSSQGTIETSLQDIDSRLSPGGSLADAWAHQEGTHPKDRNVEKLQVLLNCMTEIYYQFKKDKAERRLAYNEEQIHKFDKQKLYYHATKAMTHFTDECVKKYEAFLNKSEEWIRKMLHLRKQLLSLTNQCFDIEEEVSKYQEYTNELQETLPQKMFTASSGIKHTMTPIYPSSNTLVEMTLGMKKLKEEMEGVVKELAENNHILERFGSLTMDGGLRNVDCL
Nature of the assay: TBK biochemical assay. To be noted: 10 point 1:4 dose response, 30 uM top concentration, 90 min at 25° C., LabChip EZ Reader II; read-out: TBK1_IC50. A digest of the protocol: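 Read-out was a Caliper LabChip mobility-shift assay, run after a 90-min, 25 °C reaction of TBK1 with substrate and compounds, quenched with stop buffer. Control wells received staurosporine at 10 uM final.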

Another assay deals with T2, IKKε (Homo sapiens, UniProt Q14164).
T2 sequence (Q14164 1-716): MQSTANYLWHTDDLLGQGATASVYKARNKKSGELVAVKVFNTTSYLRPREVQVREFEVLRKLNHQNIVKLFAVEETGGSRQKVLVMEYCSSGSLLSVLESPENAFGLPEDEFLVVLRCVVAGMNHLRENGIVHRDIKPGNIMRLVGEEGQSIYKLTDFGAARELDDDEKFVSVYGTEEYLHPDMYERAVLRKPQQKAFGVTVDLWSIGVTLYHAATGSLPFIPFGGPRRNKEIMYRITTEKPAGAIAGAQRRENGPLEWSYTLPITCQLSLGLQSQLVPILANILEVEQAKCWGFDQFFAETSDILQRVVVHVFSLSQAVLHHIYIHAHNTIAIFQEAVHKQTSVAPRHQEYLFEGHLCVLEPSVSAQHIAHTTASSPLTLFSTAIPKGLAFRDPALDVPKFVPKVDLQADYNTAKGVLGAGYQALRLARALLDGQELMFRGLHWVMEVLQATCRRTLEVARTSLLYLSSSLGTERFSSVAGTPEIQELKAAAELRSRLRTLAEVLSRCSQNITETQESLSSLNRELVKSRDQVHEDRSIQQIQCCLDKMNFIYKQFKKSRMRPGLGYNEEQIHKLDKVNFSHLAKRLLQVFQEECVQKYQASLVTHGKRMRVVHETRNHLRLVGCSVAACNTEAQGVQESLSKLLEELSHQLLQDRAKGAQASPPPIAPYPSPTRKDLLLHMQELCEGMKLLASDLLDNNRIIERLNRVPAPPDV
Nature of the assay: IKKε biochemical assay. Particulars: 10 point 1:4 dose response, 30 uM top concentration, 90 min at 25° C., LabChip EZ Reader II; read-out: IKKε_IC50. A digest of the protocol:
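Mobility-shift LabChip read-out followed a 90 min, 25° C. reaction of IKKε with substrate and test compound, with DMSO held at 1% final. Reactions were ended with stop buffer. Wells with 10 uM final staurosporine defined complete inhibition, and DMSO-only wells the uninhibited level.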

Regarding `COc1nc(Nc2nccc(-c3ccc(OC4CCN(C)CC4)c(C#N)c3)n2)ccc1C(=O)N(C)C` [Example 71, 6-[(4-[3-cyano-4-[(1-methylpiperidin-4-yl)oxy]phenyl]pyrimidin-2-yl)amino]-2-methoxy-N,N-dimethylpyridine-3-carboxamide hydrochloride], the pIC50 at TBK1 and at IKKε was 6.00 to 7.00 each time.
On to `COc1nc(Nc2nccc(-c3ccc(OC4CCNCC4)c(C#N)c3)n2)ccc1C(=O)N(C)C` [Example 72, 6-([4-[3-cyano-4-(piperidin-4-yloxy)phenyl]pyrimidin-2-yl]amino)-2-methoxy-N,N-dimethylpyridine-3-carboxamide], for which the pIC50 at TBK1 and on IKKε was > 7.00 throughout.
Take `COc1nc(Nc2nccc(-c3ccc(OC4CCN(C(=O)CO)CC4)c(C#N)c3)n2)ccc1C(=O)N(C)C` [Example 73, 6-[[4-(3-cyano-4-[[1-(2-hydroxyacetyl)piperidin-4-yl]oxy]phenyl)pyrimidin-2-yl]amino]-2-methoxy-N,N-dimethylpyridine-3-carboxamide]: the pIC50 at TBK1 and on IKKε was > 7.00 throughout.
As for `COc1nc(Nc2nccc(-c3ccc(O[C@H]4CCNC[C@H]4F)c(C#N)c3)n2)ccc1C(=O)N(C)C` [Example 74, 6-[[4-(3-cyano-4-[[(3R,4S)-3-fluoropiperidin-4-yl]oxy]phenyl)pyrimidin-2-yl]amino]-2-methoxy-N,N-dimethylpyridine-3-carboxamide], the pIC50 on TBK1 and at IKKε was > 7.00 in each case.
As for `COc1nc(Nc2nccc(-c3ccc(O[C@H]4CCN(C(=O)CO)C[C@H]4F)c(C#N)c3)n2)ccc1C(=O)N(C)C` [Example 75, 6-[[4-(3-cyano-4-[[(3R,4S)-3-fluoro-1-(2-hydroxyacetyl)piperidin-4-yl]oxy]phenyl)pyrimidin-2-yl]amino]-2-methoxy-N,N-dimethylpyridine-3-carboxamide hydrochloride], the pIC50 on TBK1 and at IKKε was > 7.00 each time.
On to `COc1nc(Nc2nccc(-c3ccc(OC4CCNCC4(F)F)c(C#N)c3)n2)ccc1C(=O)N(C)C` (centres unmarked) [Example 76, 6-[(4-[3-cyano-4-[(3,3-difluoropiperidin-4-yl)oxy]phenyl]pyrimidin-2-yl)amino]-2-methoxy-N,N-dimethylpyridine-3-carboxamide], for which the pIC50 on TBK1 and on IKKε was > 7.00 each time.
For `COc1nc(Nc2nccc(-c3ccc(OC4CCN(C(=O)c5cocn5)CC4)c(C#N)c3)n2)ccc1C(=O)N(C)C` [Example 77, 6-([4-[3-cyano-4-([1-[(1,3-oxazol-4-yl)carbonyl]piperidin-4-yl]oxy)phenyl]pyrimidin-2-yl]amino)-2-methoxy-N,N-dimethylpyridine-3-carboxamide], the pIC50 on TBK1 and at IKKε was > 7.00 each time.
Consider `COc1nc(Nc2nccc(-c3ccc(OC4CCN(C(=O)c5n[nH]c(C)n5)CC4)c(C#N)c3)n2)ccc1C(=O)N(C)C` [Example 78, 6-([4-[3-cyano-4-([1-[(5-methyl-1H-1,2,4-triazol-3-yl)carbonyl]piperidin-4-yl]oxy)phenyl]pyrimidin-2-yl]amino)-2-methoxy-N,N-dimethylpyridine-3-carboxamide], for which the pIC50 on TBK1 and at IKKε was > 7.00 throughout.
As for `COc1nc(Nc2nccc(-c3ccc(OC4CCN(C(=O)c5cnco5)CC4)c(C#N)c3)n2)ccc1C(=O)N(C)C` [Example 79, 6-([4-[3-cyano-4-([1-[(1,3-oxazol-5-yl)carbonyl]piperidin-4-yl]oxy)phenyl]pyrimidin-2-yl]amino)-2-methoxy-N,N-dimethylpyridine-3-carboxamide], the pIC50 at TBK1 and on IKKε was > 7.00 throughout.
As for `CN1CCN(c2ccc(Nc3nccc(-c4ccc(OC5CN(C)C5)c(C#N)c4)n3)nc2)CC1` [Example 81, 2-[(1-methylazetidin-3-yl)oxy]-5-(2-[[5-(4-methylpiperazin-1-yl)pyridin-2-yl]amino]pyrimidin-4-yl)benzonitrile], the pIC50 on TBK1 and on IKKε was 5.30 to 6.00 throughout.
As to `CN1CCN(c2ccc(Nc3nccc(-c4ccc(OC5CCN(C)C5)c(C#N)c4)n3)nc2)CC1` (centres unmarked) [Example 82, 5-(2-[[5-(4-methylpiperazin-1-yl)pyridin-2-yl]amino]pyrimidin-4-yl)-2-[(1-methylpyrrolidin-3-yl)oxy]benzonitrile hydrochloride], the results for the pIC50 on TBK1 and at IKKε were < 5.30 and 5.30 to 6.00, respectively.
Take `CN1CCC(Oc2ccc(-c3ccnc(Nc4ccc(N5CCN(C)CC5)cn4)n3)cc2C#N)CC1` [Example 83, 5-(2-[[5-(4-methylpiperazin-1-yl)pyridin-2-yl]amino]pyrimidin-4-yl)-2-[(1-methylpiperidin-4-yl)oxy]benzonitrile]: the pIC50 is < 5.30 on TBK1 and 5.30 to 6.00 on IKKε.
With `CN1CCN(c2ccc(Nc3nccc(-c4ccc(O[C@H]5CCN(C)C[C@H]5F)c(C#N)c4)n3)nc2)CC1` [Example 84, 2-[[(3R,4S)-3-fluoro-1-methylpiperidin-4-yl]oxy]-5-(2-[[5-(4-methylpiperazin-1-yl)pyridin-2-yl]amino]pyrimidin-4-yl)benzonitrile], the pIC50 was 6.00 to 7.00 at TBK1 and > 7.00 on IKKε.
Consider `CN1CCN(c2ccc(Nc3nccc(-c4ccc(OC5CCN(C)CC5(F)F)c(C#N)c4)n3)nc2)CC1` (centres unmarked) [Example 85, 2-[(3,3-difluoro-1-methylpiperidin-4-yl)oxy]-5-(2-[[5-(4-methylpiperazin-1-yl)pyridin-2-yl]amino]pyrimidin-4-yl)benzonitrile], for which the pIC50 on TBK1 and on IKKε was 6.00 to 7.00 in each case.
For the molecule `COc1nc(Nc2nccc(-c3ccc(OC4CN(C)C4)c(C#N)c3)n2)ccc1N1CCN(C)CC1` [Example 86, 5-(2-[[6-methoxy-5-(4-methylpiperazin-1-yl)pyridin-2-yl]amino]pyrimidin-4-yl)-2-[(1-methylazetidin-3-yl)oxy]benzonitrile], the pIC50 on TBK1 and at IKKε was 6.00 to 7.00 throughout.
With `COc1nc(Nc2nccc(-c3ccc(OC4CCN(C)C4)c(C#N)c3)n2)ccc1N1CCN(C)CC1` (centres unmarked) [Example 87, 5-(2-[[6-methoxy-5-(4-methylpiperazin-1-yl)pyridin-2-yl]amino]pyrimidin-4-yl)-2-[(1-methylpyrrolidin-3-yl)oxy]benzonitrile], the pIC50 on TBK1 and at IKKε was > 7.00 each time.
In the case of `COc1nc(Nc2nccc(-c3ccc(OC4CCN(C)CC4)c(C#N)c3)n2)ccc1N1CCN(C)CC1` [Example 88, 5-(2-[[6-methoxy-5-(4-methylpiperazin-1-yl)pyridin-2-yl]amino]pyrimidin-4-yl)-2-[(1-methylpiperidin-4-yl)oxy]benzonitrile], the pIC50 on TBK1 and on IKKε was 6.00 to 7.00 each time.
On to `COc1nc(Nc2nccc(-c3ccc(OC4CCNCC4)c(C#N)c3)n2)ccc1N1CCN(C)CC1` [Example 89, 5-(2-[[6-methoxy-5-(4-methylpiperazin-1-yl)pyridin-2-yl]amino]pyrimidin-4-yl)-2-(piperidin-4-yloxy)benzonitrile], for which the pIC50 on TBK1 and on IKKε was > 7.00 in each case.
As to `COc1nc(Nc2nccc(-c3ccc(OC4CCN(C(=O)CO)CC4)c(C#N)c3)n2)ccc1N1CCN(C)CC1` [Example 90, 2-[[1-(2-hydroxyacetyl)piperidin-4-yl]oxy]-5-(2-[[6-methoxy-5-(4-methylpiperazin-1-yl)pyridin-2-yl]amino]pyrimidin-4-yl)benzonitrile], the pIC50 on TBK1 and on IKKε was > 7.00 throughout.
